Target: HIV protease (Human immunodeficiency virus type 1 group M subtype B, UniProt P04585)
Test: Enzymatic (FRET fluorometric) assay for determining the inhibition constant (Ki) of compounds targeting the HIV protease
Type: biochemical
Settings: FRET substrate (EDANS/DABCYL), equation of Henderson; read-out: Ki
Description: Enzymatic Assay for Determining the Inhibition Constant (Ki) of Synthetic Compounds Targeting the HIV Protease
This is a fluorometric assay based on the cleavage by protease of a substrate carrying a donor group (EDANS) and an acceptor group (DABCYL) on each side of the cleavage site, interacting together through fluorescence resonance energy transfer (FRET) as described by Matayoshi et al. (Science 247:[…], 1990).
After calculation of Vo and Vi, the inhibition constant (Ki) of the compound is determined using the equation of Henderson: [formula]
where Vo=the enzyme's initial velocity
Vi=the enzyme velocity in the presence of the inhibitory compound,
[I]=inhibitor concentration, [S]=substrate concentration,
Km=Michaelis-Menten constant and Kiapp=apparent Ki
Graphs are traced and the Ki determined using GraphPad Prism software v. 3.0.
`CC(C)CN([C@H](CO)CCCCNC(=O)N(Cc1ccccc1)Cc1ccncc1)S(=O)(=O)c1ccc(N)cc1` [Example 52, (2S) 2-N-(4-Aminobenzenesulfonyl)-2-N-isobutyl-6-N-[N′-benzyl-N′-(4-picolyl)aminocarbonyl]-2,6-diaminohexanol] showed a Ki of 90 nM.
Molecule `CC(C)CN([C@@H](CCCCNC(=O)NCc1ccccc1)C(=O)O)S(=O)(=O)c1ccc(N)cc1` [Example 18, Nα-(4-Aminobenzenesulfonyl)-Nα-isobutyl-Nε-benzylaminocarbonyl-L-lysine] has a Ki of 200 nM.
With `CC(C)CN([C@@H](CCCCNC(=O)N(Cc1ccccc1)Cc1cccnc1)C(=O)O)S(=O)(=O)c1ccc(N)cc1` [Example 47, Nα-(4-Aminobenzenesulfonyl)-Nα-isobutyl-Nε-[N′-benzyl-N′-(3-picolyl)aminocarbonyl]-L-lysine] the Ki was 2.4 nM.
Work on `Cc1ccc(S(=O)(=O)N(CC(C)C)[C@H](CO)CCCCNC(=O)N(Cc2ccccc2)Cc2ccccc2N)cc1` [Example 62, (2S) 2-N-Isobutyl-2-N-(4-methylbenzenesulfonyl)-6-N-[N′-(2-aminobenzyl)-N′-benzylaminocarbonyl]-2,6-diaminohexanol] yielded a Ki of 39 nM.
In the case of `Cc1ccc(S(=O)(=O)N(CC(C)C)[C@@H](CCCCNC(=O)N(Cc2ccccc2)C(C)C)C(=O)O)cc1` [Example 39, Nα-Isobutyl-Nα-(4-methylbenzenesulfonyl)-Nε-[(N′-benzyl-N′-iso-propyl)aminocarbonyl]-L-lysine], the Ki is reported as 19 nM.
Molecule `CC(C)CN([C@H](CO)CCCCNC(=O)N(Cc1ccc(C(F)(F)F)cc1)Cc1ccc2c(c1)OCO2)S(=O)(=O)c1ccc(N)cc1` [Example 92, (2S) 2-N-(4-Aminobenzenesulfonyl)-2-N-isobutyl-6-N-[N′-(4-trifluoromethylbenzyl)-N′-piperonylaminocarbonyl]-2,6-diaminohexanol] has a Ki of 2.5 nM.
For `Cc1ccc(S(=O)(=O)N(CC(C)C)[C@H](CO)CCCCNC(=O)N(Cc2ccccc2)Cc2cccc(N)c2)cc1` [Example 63, (2S) 2-N-Isobutyl-2-N-(4-methylbenzenesulfonyl)-6-N-[N′-(3-aminobenzyl)-N′-benzylaminocarbonyl]-2,6-diaminohexanol], the Ki was 54 nM.
Work on `CC(C)CN([C@H](CO)CCCCNC(=O)N(Cc1ccsc1)Cc1ccc2c(c1)OCO2)S(=O)(=O)c1ccc(N)cc1` [Example 81, (2S) 2-N-(4-Aminobenzenesulfonyl)-2-N-isobutyl-6-N-[N′-(3-thiophenemethyl)-N′-piperonylaminocarbonyl]-2,6-diaminohexanol] yielded a Ki of 6.3 nM.
In the case of `COc1ccc(CN(Cc2ccncc2)C(=O)NCCCC[C@@H](CO)N(CC(C)C)S(=O)(=O)c2ccc(N)cc2)cc1` [Example 53, (2S) 2-N-(4-Aminobenzenesulfonyl)-2-N-isobutyl-6-N-[N′-(4-methoxybenzyl)-N′-(4-picolyl)aminocarbonyl]-2,6-diaminohexanol], the Ki is reported as 90 nM.
With `Cc1ccc(S(=O)(=O)N(CC(C)C)[C@@H](CCCCNC(=O)N(Cc2ccncc2)Cc2ccncc2)C(=O)O)cc1` [Example 44, Nα-Isobutyl-Nα-(4-methylbenzenesulfonyl)-Nε-[N′,N′-di-(4-picolyl)aminocarbonyl]-L-lysine] the Ki was 187 nM.
Work on `COc1ccc(CN(Cc2ccncc2)C(=O)NCCCC[C@@H](CO)N(CC(C)C)S(=O)(=O)c2ccc(C)cc2)cc1` [Example 45, (2S) 2-N-Isobutyl-2-N-(4-methylbenzenesulfonyl)-6-N-[N′-(4-methoxybenzyl)-N′-(4-picolyl)aminocarbonyl]-2,6-diaminohexanol] yielded a Ki of 54 nM.
Work on `CCC(C)CN(C(CO)CCCCNC(=O)N(Cc1ccc2c(c1)OCO2)Cc1cccs1)S(=O)(=O)c1ccc(N)cc1` [Example 99, (2S) 2-N-(4-Aminobenzenesulfonyl)-2-N-(2-methylbutyl)-6-N-[N′-(2-thiophenemethyl)-N′-piperonylaminocarbonyl]-2,6-diaminohexanol] yielded a Ki of 24 nM.
For `Cc1ccc(S(=O)(=O)N(CC(C)C)[C@@H](CCCCNC(=O)N(Cc2ccccc2)Cc2ccccc2)C(=O)O)cc1` [Example 32, Nα-Isobutyl-Nα-(4-methylbenzenesulfonyl)-Nε-(N′,N′-dibenzylaminocarbonyl)-L-lysine], the Ki was 7.2 nM.
For `CC(C)CN([C@H](CO)CCCCNC(=O)NCc1ccc2c(c1)OCO2)S(=O)(=O)c1ccc(N)cc1` [Example 74, (2S) 2-N-(4-Aminobenzenesulfonyl)-2-N-isobutyl-6-N-piperonylaminocarbonyl-2,6-diaminohexanol], the Ki was 22 nM.
With `Cc1ccc(S(=O)(=O)N(CC(C)C)[C@@H](CCCCNC(=O)NCc2ccccc2)C(=O)O)cc1` [Example 2, Nα-Isobutyl-Nα-(4-methylbenzenesulfonyl)-Nε-(benzylaminocarbonyl)-L-lysine] the Ki was 32 nM.
In the case of `Cc1ccc(S(=O)(=O)N(CC(C)C)[C@@H](CCCCNC(=O)N(C)Cc2ccccc2)C(=O)O)cc1` [Example 40, Nα-Isobutyl-Nα-(4-methylbenzenesulfonyl)-Nε-[(N′-benzyl-N′-methyl)aminocarbonyl]-L-lysine], the Ki is reported as 55 nM.
`COc1ccc(CN(Cc2ccncc2)C(=O)NCCCC[C@@H](C(=O)O)N(CC(C)C)S(=O)(=O)c2ccc(C)cc2)cc1` [Example 43, Nα-Isobutyl-Nα-(4-methylbenzenesulfonyl)-Nε-[N′-(4-methoxybenzyl)-N′-(4-picolyl)aminocarbonyl]-L-lysine] gave a Ki of 7.9 nM.
Molecule `CC(C)CN([C@H](CO)CCCCNC(=O)N(Cc1ccc2c(c1)OCO2)Cc1cccs1)S(=O)(=O)c1ccc(N)cc1` [Example 75, (2S) 2-N-(4-Aminobenzenesulfonyl)-2-N-isobutyl-6-N-[N′-(2-thiophenemethyl)-N′-piperonylaminocarbonyl]-2,6-diaminohexanol] has a Ki of 2 nM.
`Cc1ccc(S(=O)(=O)N(CC(C)C)[C@@H](CCCCNC(=O)NCCc2c[nH]c3ccccc23)C(=O)O)cc1` [Example 6, Nα-Isobutyl-Nα-(4-methylbenzenesulfonyl)-Nε-[2′-(3-indolyl)ethylaminocarbonyl]-L-lysine] showed a Ki of 40 nM.
`CC(C)CN([C@H](CO)CCCCNC(=O)N(Cc1ccc(F)cc1)C1CCCCC1)S(=O)(=O)c1ccc(N)cc1` [Example 66, (2S) 2-N-(4-Aminobenzenesulfonyl)-2-N-isobutyl-6-N-[N′-cyclohexyl-N′-(4-fluorobenzyl)aminocarbonyl]-2,6-diaminohexanol] gave a Ki of 175 nM.
`Cc1ccc(S(=O)(=O)N(CC(C)C)[C@H](CO)CCCCNC(=O)N(Cc2ccccc2)Cc2ccc(N)cc2)cc1` [Example 64, (2S) 2-N-Isobutyl-2-N-(4-methylbenzenesulfonyl)-6-N-[N′-(4-aminobenzyl)-N′-benzylaminocarbonyl]-2,6-diaminohexanol] gave a Ki of 21 nM.

Same assay, conditions: Ki, FRET substrate (EDANS/DABCYL), equation of Henderson
Work on `Cc1ccc(S(=O)(=O)N(CC(C)C)[C@H](CO)CCCCNC(=O)N(Cc2ccccc2)Cc2cccc([N+](=O)[O-])c2)cc1` [Example 60, (2S) 2-N-Isobutyl-2-N-(4-methylbenzenesulfonyl)-6-N-[N′-benzyl-N′-(3-nitrobenzyl)aminocarbonyl]-2,6-diaminohexanol] yielded a Ki of 6 nM.
`CC(C)CN([C@H](CO)CCCCNC(=O)N(Cc1ccc(F)cc1)Cc1ccc2c(c1)OCO2)S(=O)(=O)c1ccc(N)cc1` [Example 67, (2S) 2-N-(4-Aminobenzenesulfonyl)-2-N-isobutyl-6-N-[N′-(4-fluorobenzyl)-N′-piperonylaminocarbonyl]-2,6-diaminohexanol] gave a Ki of 2 nM.
For `CC(C)CN([C@H](CO)CCCCNC(=O)N(Cc1ccccc1)Cc1ccc2c(c1)OCO2)S(=O)(=O)c1ccc(N)cc1` [Example 82, (2S) 2-N-(4-Aminobenzenesulfonyl)-2-N-isobutyl-6-N-(N′-benzyl-N′-piperonylaminocarbonyl)-2,6-diaminohexanol], the Ki was 2.6 nM.
In the case of `Cc1ccc(S(=O)(=O)N(CC(C)C)[C@H](CO)CCCCNC(=O)N(Cc2ccccc2)Cc2ccccc2[N+](=O)[O-])cc1` [Example 59, (2S) 2-N-Isobutyl-2-N-(4-methylbenzenesulfonyl)-6-N-[N′-benzyl-N′-(2-nitrobenzyl)aminocarbonyl]-2,6-diaminohexanol], the Ki is reported as 1.7 nM.

System: not listed separately
Test: in vitro
Type: cell-based
Settings: human
Experimental: To evaluate the EC50 of our compounds, various drug concentrations are incubated with the infected cell for six days and then the metabolic activity of the cells is monitored by the MTT assay. (See A. J. Japour et al, Antimicrobial Agents and Chemotherapy, 37, 1095-1101, 1993 and R. Pauwels et al. Journal of Virological Methods, 20, 309-321, 1988).
We use the laboratory viral strain NL4.3 as wild type virus and the cell line used is MT-4 which is a T-cell line highly sensitive to HIV-1. We also use some WT clinical strains. To address the resistance issue we assay the inhibitors with NL4.3 mutants which are designed to be resistant to specific commercially available inhibitors.
The same MTT assay is used to evaluate the CCIC50 (cell culture IC50) of our compounds except that the virus is omitted.
For `Cc1ccc(S(=O)(=O)N(CC(C)C)[C@H](CO)CCCCNC(=O)N(Cc2ccccc2)Cc2cccc([N+](=O)[O-])c2)cc1` [Example 60, (2S) 2-N-Isobutyl-2-N-(4-methylbenzenesulfonyl)-6-N-[N′-benzyl-N′-(3-nitrobenzyl)aminocarbonyl]-2,6-diaminohexanol], the IC50 at 6 days was 4600 nM.
With `CC(C)CN([C@H](CO)CCCCNC(=O)N(Cc1ccc(F)cc1)Cc1ccc2c(c1)OCO2)S(=O)(=O)c1ccc(N)cc1` [Example 67, (2S) 2-N-(4-Aminobenzenesulfonyl)-2-N-isobutyl-6-N-[N′-(4-fluorobenzyl)-N′-piperonylaminocarbonyl]-2,6-diaminohexanol] the IC50 at 6 days was 11000 nM.
With `CC(C)CCN([C@H](CO)CCCCNC(=O)N(Cc1ccncc1)Cc1ccc2c(c1)OCO2)S(=O)(=O)c1ccc(N)cc1` [Example 95, (2S) 2-N-(4-Aminobenzenesulfonyl)-2-N-(3-methylbutyl)-6-N-[N′-(4-picolyl)-N′-piperonylaminocarbonyl]-2,6-diaminohexanol] the IC50 at 6 days was 28800 nM.
Molecule `CC(C)CN([C@H](CO)CCCCNC(=O)N(Cc1ccccc1)Cc1ccc2c(c1)OCO2)S(=O)(=O)c1ccc(N)cc1` [Example 82, (2S) 2-N-(4-Aminobenzenesulfonyl)-2-N-isobutyl-6-N-(N′-benzyl-N′-piperonylaminocarbonyl)-2,6-diaminohexanol] has an IC50 at 6 days of 12500 nM.
`COc1cc(CN(Cc2ccc3c(c2)OCO3)C(=S)NCCCC[C@@H](CO)N(CCC(C)C)S(=O)(=O)c2ccc(N)cc2)cc(OC)c1OC` [Example 107, (2S) 2-N-(4-Aminobenzenesulfonyl)-2-N-(3-methylbutyl)-6-N-[N′-(3,4,5-trimethoxybenzyl)-N′-piperonylaminothiocarbonyl]-2,6-diaminohexanol] showed an IC50 at 6 days of 10700 nM.
`Cc1ccc(S(=O)(=O)N(CC(C)C)[C@H](CO)CCCCNC(=O)N(Cc2ccccc2)Cc2ccccc2[N+](=O)[O-])cc1` [Example 59, (2S) 2-N-Isobutyl-2-N-(4-methylbenzenesulfonyl)-6-N-[N′-benzyl-N′-(2-nitrobenzyl)aminocarbonyl]-2,6-diaminohexanol] showed an IC50 at 6 days of 4600 nM.
In the case of `CC(C)CCN([C@H](CO)CCCCNC(=O)N(Cc1ccc(F)cc1)Cc1ccc2c(c1)OCO2)S(=O)(=O)c1ccc(N)cc1` [Example 102, (2S) 2-N-(4-Aminobenzenesulfonyl)-2-N-(3-methylbutyl)-6-N-[N′-(4-fluorobenzyl)-N′-piperonylaminocarbonyl]-2,6-diaminohexanol], the IC50 at 6 days is reported as 24400 nM.

Source: patent US6528532B1, “Urea derivatives as HIV aspartyl protease inhibitors” (Pharmacor Inc., priority 2002, dated 2003)
